Experiments:
32D-mpl cells = settings: concentration 1-30 uM
Description: (§1) 32D-mpl cells express Tpo-R and their survival is dependent on the presence of TPO. […] In this assay, purified human CD34+ progenitor cells were incubated in liquid culture with test compounds for 10 days and the number of cells expressing the transmembrane glycoprotein CD41 (gpIIb), a megakaryocytic marker, was then measured by flow cytometry (see Cwirla, S. E. et al Science, 1997, 276, 1696-1699).

[1] = system: purified human CD34+ progenitor cells; settings: concentrations 1-30 uM; 10 days liquid culture, CD41 by flow cytometry
Description: as §1

## Cl.Cl.Cl.Cl.Cl.Cl.Cl.Cl.O.O.c1cc(CN2CCCNCCNCCCNCC2)ccc1CN1CCCNCCNCCCNCC1 [Example 1, 1,1′-[1,4-Phenylenebis(methylene)]bis[1,4.8,11-tetraazacyclotetradecane]octahydrochloride Dihydrate]
32D-mpl cells
  proliferation of 32D-mpl cells: promoted the proliferation
[1]
  activity in the CD41 megakaryocytic assay: showed activity

Source: patent US6498155B1, “Methods of treating thrombocytopenia” (SmithKline Beecham Corporation, priority 1998, dated 2002)
